In EP0337503B1, “Fumigation methods and compositions” (Entek Corporation, priority 1983, dated 1984):

Legend:
[1] = Decomposition in sandy loam soil at different moisture, CS2 in air space by gas chromatography; assay type: physicochemical; details: hours to maximum CS2 concentration in the air space
Procedure: A sandy loam soil is placed in 1-liter glass bottles, fitted with stoppers having fluorocarbon liners and silicone rubber septa, to give a soil depth of about 4 cm. […] Thiocarbonate solution or carbon disulfide is injected near the bottom of the soil layer, the bottles are promptly sealed, and the air space in the bottles is sampled at intervals with a syringe, for gas chromatographic analysis of CS2. Results are summarized below, wherein degradation time is the number of hours required to achieve the maximum CS2 concentration in the air space.

Fusarium oxysporum = assay: Fungicidal test, radial growth of mycelia colonies; assay type: cell-based; details: listed as CaCS4 (2.8%CS2)
Procedure: (§1) Thiocarbonate solutions are used in a test of their fungicidal properties. Cultures of four plant pathogenic fungi are grown upon potato dextrose agar at room temperature, in diffuse natural lighting. After one week, square blocks having 2 millimeter sides are cut from the edges of actively growing mycelia spots on the agar.
(§2) The blocks are immersed in sterile deionized water, as a control, or in dilutions of thiocarbonate solutions using the sterile water, in a closed container. Subsequently, the blocks are removed and placed upon agar in clean plates, and mycelia are allowed to grow for one week.
(§3) Radial growth of mycelia colonies is measured for each of the six to eight replicate plates used for a particular fungus, and average colony radius is calculated. Percent control is defined by the following equation: Percent control =[1-((Average radius of treated plates)/(Average radius of control plates))]x100 [formula]
(§4) Concentrations given for solutions used to treat the agar blocks are expressed in grams of thiocarbonate solution per liter of diluted solution.

Sclerotium rolfsii = assay: Fungicidal test, radial growth of mycelia colonies; assay type: cell-based
Procedure: as §1, §2, §3, §4

Phytophthora cinnamomi = assay: Fungicidal test, radial growth of mycelia colonies; assay type: cell-based
Procedure: as §1, §2, §3, §4

Verticillium dahliae = assay: Fungicidal test, radial growth of mycelia colonies; assay type: cell-based
Procedure: as §1, §2, §3, §4

[2] = test system: root-knot nematode larvae (Meloidogyne incognita); assay: Greenhouse nematocide experiment with tomato plants, soil drench, root gall count; assay type: in vivo; details: 30 days; for Gall Counts, replicate 3: control 1; for Gall Counts, Mean: control 4.0; for Gall Counts, replicate 2: control 7; for Gall Counts, replicate 1: control 4
Procedure: In the experiment, thirty containers are used, each containing about 500 grams of sterilized sandy loam soil. Each container contains one tomato plant. Each container is injected with four 5-milliliter portions of extract from nematode-infested pepper roots, one inch below the soil surface, producing an initial population of 2000 root-knot nematode larvae (Meloidogyne incognita) per container.
Ten treatments are replicated three times, each treatment consisting of drenching the soil with a solution containing the fumigant to provide the dosage of CS2 given in the following table. The solutions are diluted with sufficient water to saturate the soil. The treatments include calcium tetrathiocarbonate, stabilized ammonium tetrathiocarbonate, and carbon disulfide at three levels, plus an untreated control. After drenching, each container is allowed to stand at ambient conditions. The plants are harvested after 30 days of growth, and soil is removed from the roots by a gentle washing with water. By use of a magnifying glass, the number of root galls is counted on each plant.
Results are summarized below, wherein the "Application" represents milligrams of treatment per kilogram of soil, calculated as the thiocarbonate salt and the equivalent carbon disulfide. Gall counts are mean values from the three replicates.

nematode larvae = assay: In-vitro nematocidal test: larvae treated in aqueous suspension, injected into root zone of tomato plants, gall count; assay type: in vivo, Meloidogyne incognita; details: larvae treated 1 hour; for Gall Count, replicate 2: control 88; for Gall Count, Mean: control 89; for Gall Count, replicate 1: control 90
Procedure: The procedure of Example 2 is repeated except that potassium tetrathiocarbonate is substituted for stabilized ammonium tetrathiocarbonate and an in-vitro nematocidal test is used. In the in-vitro test, the nematode larvae are treated in aqueous suspension for 1 hour at the concentrations of fumigant given in the following table, washed twice with water, and injected into the active root zone of the tomato plants. After thirty days the roots are harvested, examined for galling, giving the results summarized below.

[3] = Effect of pH on production of CS2 from thiocarbonates in citrate-phosphate buffers, gas chromatography of air; assay type: physicochemical
Procedure: Pure carbon disulfide is also injected, for comparison. A syringe is used to periodically sample air in the bottle, and the air is analyzed by gas chromatography.

[4] = Storage stability: loss of ability of aqueous solutions to generate carbon disulfide upon contact with strong acid; assay type: physicochemical; details: aqueous solutions of tetrathiocarbonate salts, about 14 to about 16 percent by weight carbon disulfide equivalent, air-tight glass containers, 49° C.; listed as Ca^++
Procedure: Various tetrathiocarbonate salts are evaluated for storage stability by measuring the loss of the ability of aqueous solutions thereof to generate carbon disulfide upon contact with strong acid. Aqueous solutions of the salts listed in the following table, having an equivalent of from about 14 to about 16 percent by weight carbon disulfide, are stored in air-tight glass containers at a temperature of 49° C.

[5] = 1 g/l, listed as CaCS4 (2.8%CS2)
[6] = 10 g/l, listed as CaCS4 (2.8%CS2)
[7] = highest application: 638/89 ppm ((NH4)2CS4·(NH4)2S), 730/91 (CaCS4), 97 ppm (CS2)
[8] = lowest application: 213/30 ppm ((NH4)2CS4·(NH4)2S), 245/31 (CaCS4), 32 ppm (CS2)
[9] = middle application: 425/60 ppm ((NH4)2CS4·(NH4)2S), 490/61 (CaCS4), 65 ppm (CS2)
[10] = 50 ppm salt (6.3 ppm CS2 equiv. CaCS4; 6.5 ppm K2CS4)
[11] = 100 ppm salt (12.5 ppm CS2 equiv. CaCS4; 13 ppm K2CS4)
[12] = 150 ppm salt (18.8 ppm CS2 equiv. CaCS4; 19.5 ppm K2CS4)

S=C(S)SS [CaCS4, calcium tetrathiocarbonate]
Degradation Time ([1]; Soil Moisture 0 % of Saturation): 4 h
Degradation Time ([1]; Soil Moisture 50 % of Saturation): 5 h
Degradation Time ([1]; Soil Moisture 100 % of Saturation): 48 h
Percent Control Fusarium oxysporum (Fusarium oxysporum; 1 g/l): 3%
Percent Control Fusarium oxysporum (Fusarium oxysporum; 10 g/l): 18%
Percent Control Fusarium oxysporum (Fusarium oxysporum; 100 g/l thiocarbonate solution per liter of diluted solution): 100%
Percent Control Sclerotium rolfsii (Sclerotium rolfsii; [5]): 46%
Percent Control Sclerotium rolfsii (Sclerotium rolfsii; [6]): 62%
Percent Control Sclerotium rolfsii (Sclerotium rolfsii; 100 g/l): 100%
Percent Control Phytophthora cinnamomi (Phytophthora cinnamomi; [5]): 56%
Percent Control Phytophthora cinnamomi (Phytophthora cinnamomi; [6]): 56%
Percent Control Phytophthora cinnamomi (Phytophthora cinnamomi; 100 g/l): 100%
Percent Control Verticillium dahliae (Verticillium dahliae; [5]): 13%
Percent Control Verticillium dahliae (Verticillium dahliae; [6]): 22%
Percent Control Verticillium dahliae (Verticillium dahliae; 100 g/l): 100%
Gall Counts, replicate 3 [2, 7]: 9
Gall Counts, Mean [2, 7]: 7.0
Gall Counts, replicate 2 [2, 7]: 9
Gall Counts, replicate 1 ([2]; highest application: 638 ppm salt/89 ppm Eq. CS2 ((NH4)2CS4·(NH4)2S), 730/91 (CaCS4), 97 ppm (CS2)): 3
Gall Counts, replicate 3 [2, 8]: 23
Gall Counts, Mean [2, 8]: 15.7
Gall Counts, replicate 2 [2, 8]: 8
Gall Counts, replicate 1 ([2]; lowest application: 213 ppm salt/30 ppm Eq. CS2 ((NH4)2CS4·(NH4)2S), 245/31 (CaCS4), 32 ppm (CS2)): 16
Gall Counts, replicate 3 [2, 9]: 7
Gall Counts, Mean [2, 9]: 7.3
Gall Counts, replicate 2 [2, 9]: 4
Gall Counts, replicate 1 ([2]; middle application: 425 ppm salt/60 ppm Eq. CS2 ((NH4)2CS4·(NH4)2S), 490/61 (CaCS4), 65 ppm (CS2)): 11
Gall Count, replicate 2 (nematode larvae; [10]): 149
Gall Count, Mean (nematode larvae; [10]): 167
Gall Count, replicate 1 (nematode larvae; [10]): 185
Gall Count, replicate 2 (nematode larvae; [11]): 184
Gall Count, Mean (nematode larvae; [11]): 158
Gall Count, replicate 1 (nematode larvae; [11]): 132
Gall Count, replicate 2 (nematode larvae; [12]): 66
Gall Count, Mean (nematode larvae; [12]): 49
Gall Count, replicate 1 (nematode larvae; [12]): 32
Half-life (minutes) for production of carbon disulfide ([3]; pH 5.2, 125 milligrams per liter of thiocarbonate ion): 1 min
Half-life (minutes) for production of carbon disulfide ([3]; pH 6.0, 125 milligrams per liter of thiocarbonate ion): 1.8 min
Half-life (minutes) for production of carbon disulfide ([3]; pH 7.0, 125 milligrams per liter of thiocarbonate ion): 2.7 min
Half-life (minutes) for production of carbon disulfide ([3]; pH 8.0, 125 milligrams per liter of thiocarbonate ion, CaCS4 values above pH 7 called unreliable): 8.0 min
Half-life (minutes) for production of carbon disulfide ([3]; pH 9.0, 125 milligrams per liter of thiocarbonate ion, CaCS4 values above pH 7 called unreliable): 11.3 min
Half-life (months) [4]: 5.0 months
